Key:
[1] = Solubility in organic solvents; format: physicochemical; details: methanol, ethanol, dichloromethane, ethyl acetate, acetonitrile, acetone, chloroform
human whole blood = experiment: Cytokine secretion in human whole blood assay (ELISA); format: cell-based; details: for IL-12p40 levels: all donors
Experimental: Before drawing the blood, the compounds were added to 96 well round bottom plates in a 10× diluted sample at 20 ul. The compounds were diluted in RPMI media without serum but with antibiotics. Antibiotics were added at a 10× concentration. After drawing the blood, the whole blood sample was gently mixed to obtain a homogeneous sample, and 180 ul was added to each well.
All compounds were setup in concentrations at 0-0.01-0.03-0.1-0.5-2.0-10.0 micromolar as the final concentration. Vehicle control was DMSO control, where we used the highest concentration used for the compounds. After addition of blood, all plates were gently agitated at 37° C. and 5% CO2 until harvest.
Concentrations of cytokines were determined by ELISA from R&D Systems. The results were analyzed in Graph Pad Prism in order to prepare dose-response curves, and for determination of EC50 values. FACS analysis was made by using Becton-Dickinson FACSDiva software and subsequently illustrated in Graph Pad Prism.

[2] = Plasma stability in minipig plasma (first experiment); format: in vitro ADME
Experimental: (§1) A 10 μl of MeOH was added to improve solubility. […] The supernatant fractions were analyzed by LC/MS/MS. […] Percent loss of substrate in incubations was determined to estimate the in vitro half life of the test compound. Samples were analyzed on a UPLC (Waters) interfaced with a Premiere XE Triple Quadrupole (Waters).

[3] = Stability study of compound A under storage conditions (HPLC); format: physicochemical
Experimental: (§2) At this point, a stability study was conducted on batch CH730/16/8g. The following conditions of storage were tested: • solid at room temperature (about 25° C.) and in presence of light • solid at external temperature (28-35° C.) under the sun-light • solid at +4° C. • solution in chloroform at room temperature and in presence of light • solution in chloroform at +4° C. • solution in chloroform at external temperature (28-35° C.) under the sun-light

[4] = HPLC retest of stored compound A samples; format: physicochemical; details: for HPLC purity: room temperature, natural light
Experimental: as §2

[5] = Plasma stability in rabbit plasma (first experiment); format: in vitro ADME
Experimental: as §1

[6] = Plasma stability in human plasma (first experiment); format: in vitro ADME
Experimental: as §1

[7] = tested on: recombinant protein antigens from Plasmodium falciparum and Mycobacterium ulcerans; experiment: Pilot immunization study with adjuvanted protein antigens in mice; format: in vivo; details: three s.c. immunizations with 10 nMol adjuvant
Experimental: A pilot immunization study was conducted using Compound A and SC12 adjuvanted protein antigens. The immunization experiments were performed with two recombinant proteins expressed in E. coli. One antigen was derived from the malaria parasite Plasmodium falciparum and the other one from Mycobacterium ulcerans, which cause the ulcerative skin disease Buruli ulcer.

[8] = Plasma stability in rat plasma (first experiment); format: in vitro ADME
Experimental: as §1

[9] = Serum exposure after intravesical chronic treatment in mouse
Experimental: Serum samples were taken at time points: day 0, 2 hours, day 1, 24 hours, and day 6, 2 hours.
Samples were evaporated and re-suspended in 70 microliters of acetonitrile/methanol 1:1.

human PBMCs = experiment: IL-6 secretion in human PBMCs, two batches of Compound A and SC12; format: cell-based; details: PBMCs; 10-1-0,1-0.01 micromolar
Experimental: PBMCs were purified from two donors and plated into 96 well plates at 2×10^5 cells/well in RPMI media including human 2% heat inactivated AB serum, glutamine, Pen-strep and R-mercapto-ethanol. […] The conditioned media was removed for ELISA analyses for IL-6, and the EC50 value determined for each compound and each batch.
All compounds were tested in four concentrations (10-1-0, 1-0.01 micromolar).
Concentrations of IL-6 were determined by ELISA from R&D Systems using the Microsoft Excel software. The results were analyzed in Graph Pad Prism in order to prepare dose-response curves, and for determination of EC50 values.

[10] = tested on: AY-27 rat bladder cancer cell-line
PBMCs = experiment: IL-6 and TNF-alpha secretion in PBMCs (ELISA), Model 2; format: cell-based, human; details: three donors
[11] = tested on: Cutaneous Squamous Cell Carcinoma (SCC) cell lines SCL-I, SCL-II, SCC-12, SCC-13; experiment: Proapoptotic and cytotoxic effects on cutaneous SCC cell lines (real-time cell analysis, microscopy); format: cell-based, human; details: cutaneous SCC cell lines
Experimental: SCC cells are grown under standard conditions (10% FBS).
Time and dose dependency of effects on total cell numbers have been investigated by real-time cell analysis, which is based on continuous monitoring of electric conductance in microtiter wells (E-plates, Roche), which corresponds to the cell numbers. […] For these assays 4 cell lines should be used to obtain a representative overview on the effects on SCC cells.

[12] = tested on: HLA-DR+/CD11c+/CD123- mDCs; experiment: FACS analysis of myeloid DC activation in whole blood; format: cell-based, human; details: 24 hours; 0.1 and 0.5 uM; three donors
Experimental: The FACS analysis for donor 1 and donor 2 was made on another day than donor 3. The compound concentrations were as follows:
The FACS analysis was used to identify whether the test compounds could induce activation of B cells, and two different subsets of dendritic cells, namely the myeloid CD11c+/CD123− DCs and the plasmacytoid CD11c−/CD123+ DCs. The following markers were studied to identify the activation status of the different subsets:
The FACS staining was performed according to the manufacturer's instructions. Lysis of red blood cells was performed before FACS staining in order to minimize auto-florescence. To include as many B cells and DCs in the study as possible the FACS analyses were performed on 500,000 cells in total for each staining. A P1 gate was set only to include relevant cells on FSC vs. SSC (see FIGS. 12-15). The results of the individual analysis were present as Mean Fluorescence Intensity
The analysis of myeloid DCs was based on HLA-DR+/CD11c+/CD123−cells, thus all analyzed cells was included in the HLA-DR+ (P3) gate and CD11c+/CD123− (Q4) gate (see gates in FIGS. 13-15).

HLA-DR+/CD20+ B cells = experiment: FACS analysis of B cell activation in whole blood; format: cell-based, human; details: 24 hours; 2 and 10 uM; three donors
Experimental: The FACS staining was performed according to the manufacturer's instructions. Lysis of red blood cells was performed before FACS staining in order to minimize auto-florescence. To include as many B cells and DCs in the study as possible the FACS analyses were performed on 500,000 cells in total for each staining. […] The results of the individual analysis were present as Mean Fluorescence Intensity
The analysis of expression of the activation marker CD40 on B cells was made on double positive HLA-DR (MHC class II) (P4 gate) and CD20 cells (B cell marker) (P8 gate).

[13] = tested on: 73 primary molecular targets (human recombinant receptor types and subtypes or membrane fraction from rodent tissue homogenates); experiment: Radioligand binding assay among 73 primary molecular targets; details: SC12 at 30 microM
[14] = published data, Clarke et al. 2009; cited from earlier work
[15] = whole blood, 6 hours incubation
[16] = whole blood, 24 hours incubation
[17] = batch CH730/16/8G, solid, external T and light, t = 2 days
[18] = batch CH730/16/8G, solid, external T and light, t = 6 days
[19] = batch CH730/16/8G, solution in CHCl3, RT and light, t = 0
[20] = batch CH730/16/8G, solution in CHCl3, RT and light, t = 1 day
[21] = batch CH730/16/8G, solution in CHCl3, RT and light, t = 5 days
[22] = batch CH730/16/8G, solution in CHCl3, RT and light, t = 7 days
[23] = batch CH730/16/8G, solution in CHCl3, RT and light, t = 11 days
[24] = batch CH730/16/8G, solution in CHCl3, T about 30° C. without light, t = 1 day
[25] = batch CH730/16/8G, solution in CHCl3, external T and light, t = 1 day

COCCOc1nc(N)c2[nH]c(=O)n(Cc3ccc(C(=O)O)cc3)c2n1 [Acid 7, 4-((6-amino-2-(2-methoxyethoxy)-8-oxo-7H-purin-9(8H)-yl)methyl)benzoic acid]
solubility in common solvents [1]: not soluble

CCCCCCCC/C=C\CCCCCCCC(=O)OCC(COP(=O)(O)OCCNC(=O)c1ccc(Cn2c(=O)[nH]c3c(N)nc(OCCOC)nc32)cc1)OC(=O)CCCCCCC/C=C\CCCCCCCC (stereo not shown) [Compound A, 2-(4-((6-amino-2-(2-methoxyethoxy)-8-oxo-7H-purin-9(8H)-yl)methyl)benzamido)ethyl 2,3-bis(oleoyloxy)propyl phosphate]
range of IL-6 secretion (human whole blood; whole blood, three donors): 4000 to 8000 pg/mL | ranges of IFN-alpha secreted (human whole blood; whole blood, three donors): 1000 to 2000 pg/mL | IL-12p40 levels (human whole blood; [15]): 8.000 to 12.000 pg/mL | IL-12p40 levels (human whole blood; [16]): 20.000 to 25.000 pg/mL | stability classification [2]: unstable | degradation (in words) ([3]; T>25° C. and in the presence of light): rapid degradation | HPLC % at RRT = 1 (main peak) [3, 17]: 37.6% | HPLC % of impurity at RRT = 1.06 [3, 17]: 9.2% | HPLC % of impurity at RRT = 1.11 [3, 17]: 27.9% | HPLC % of impurity at RRT = 1.26 [3, 17]: 14.8% | HPLC % at RRT = 1 (main peak) [3, 18]: 35.4% | HPLC % of impurity at RRT = 1.06 [3, 18]: 17.8% | HPLC % of impurity at RRT = 1.14 [3, 18]: 7.2% | HPLC % of impurity at RRT = 1.17 [3, 18]: 12.6% | HPLC % of impurity at RRT = 1.28 [3, 18]: 5.5% | HPLC % at RRT = 1 (main peak) [3, 19]: 81.4% | HPLC % of impurity at RRT = 1.11 [3, 19]: 8.6% | HPLC % of impurity at RRT = 1.23 [3, 19]: 4.2% | HPLC % at RRT = 1 (main peak) [3, 20]: 80.9% | HPLC % of impurity at RRT = 1.11 [3, 20]: 8.7% | HPLC % of impurity at RRT = 1.24 [3, 20]: 4.4% | HPLC % at RRT = 1 (main peak) [3, 21]: 79.3% | HPLC % of impurity at RRT = 1.10 [3, 21]: 9.9% | HPLC % of impurity at RRT = 1.24 [3, 21]: 4.2% | HPLC % at RRT = 1 (main peak) [3, 22]: 80.5% | HPLC % of impurity at RRT = 1.11 [3, 22]: 8.7% | HPLC % of impurity at RRT = 1.27 [3, 22]: 3.9% | HPLC % at RRT = 1 (main peak) [3, 23]: 82.0% | HPLC % of impurity at RRT = 1.16 [3, 23]: 6.9% | HPLC % of impurity at RRT = 1.29 [3, 23]: 3.7% | HPLC % at RRT = 1 (main peak) [3, 24]: 80.7% | HPLC % of impurity at RRT = 1.11 [3, 24]: 8.6% | HPLC % of impurity at RRT = 1.27 [3, 24]: 3.8% | HPLC % at RRT = 1 (main peak) [3, 25]: 80.3% | HPLC % of impurity at RRT = 1.11 [3, 25]: 8.0% | HPLC % of impurity at RRT = 1.27 [3, 25]: 3.2% | stability (in words) ([4]; at room temperature and/or in the presence of light): not a stable compound | HPLC purity ([4]; Test date: Jun. 10, 2009): Purity: 57.5% | HPLC purity ([4]; Test date: Jun. 11, 2009): Purity: 81.4% | HPLC purity ([4]; Test date: May 20, 2009): Purity: 89.6% | HPLC purity ([4]; tested Jun. 10, 2009, Retest date: Jun. 16, 2009): Purity: 44.8% | HPLC purity ([4]; tested Jun. 11, 2009, Retest date: Jun. 18, 2009): Purity: 71.5% | HPLC purity ([4]; tested May 20, 2009, Retest date: Jun. 12, 2009): Purity: 67.2% | HPLC purity ([4]; tested May 20, 2009, Retest date: Jun. 17, 2009): Purity: 58.9% | stability classification [5]: unstable | stability classification [6]: unstable | local side effects [7]: No local side effects | stability classification [8]: unstable

CC(C)Cn1cnc2c(N)nc3ccccc3c21 [Imiquimod, reference compound]
Imiquimod levels in serum, Mean ± S.D. ([9]; intravesical 0.1%, Day 1, 24 hours, LLOQ 2.5 ng/ml): <LLOQ | accumulation in serum (in words) ([9]; intravesical chronic treatment, 6 days): no accumulation | induction of DC secreted cytokines (in words) (human whole blood; supernatant from whole blood cell assays): weak inducer | IL-6 secretion (in words) (human whole blood; whole blood, 6 h incubation): low and insignificant amounts of IL-6 | IFN-alpha secretion (in words) (human whole blood; [15]): did not induce IFN-alpha secretion | IL-10 production (in words) (human whole blood; [15]): no IL-10 production was seen | IL-12p40 secretion (in words) (human whole blood; [15]): did not induce IL-12p40 secretion | IL-12p40 secretion (in words) (human whole blood; [16]): did not induce IL-12p40 | IL-6 induction (in words) (human PBMCs): only active in inducing IL-6 at the highest concentration | Range of weight of the rat bladders ([10]; 0.5 ml intravesical instillation (Imiquimod 0.1%, SC12 0.38%) on day 2 and 5, day 12): 0.0814-0.1891 grams | signs of toxicity (in words) ([10]; intravesical instillation on day 2 and 5): No signs of toxicity | Tumor free (% of rats) ([10]; of 14 rats per group, day 12): 35.7% | Tumor free (number of rats) ([10]; of 14 rats per group, day 12): 5 | pT2 Tumor (% of rats) ([10]; of 14 rats per group, day 12): 64.3% | pT2 Tumor (number of rats) ([10]; of 14 rats per group, day 12): 9 | induction of IL-6 and TNF-alpha secretion (in words) (PBMCs): weak ability to induce the cytokines | cell numbers (real-time cell analysis, electric conductance) [11]: reduced cell numbers | CD80 expression in mDCs (MFI, in words) [12]: weak expression of CD80 in donor 1 and 2 | CD40 expression (MFI, in words) (HLA-DR+/CD20+ B cells): increased expression in all three donors | binding to receptors associated with pain-related syndromes (e.g. adenosine and sodium channel) [13]: shown to bind

CCOCc1nc2c(N)nc3ccccc3c2n1CC(C)(C)O [Resiquimod]
IFN-alpha secreted [14]: < 200 pg/mL

Source: US9180183B2, “Phospholipid drug analogs” (Telormedix SA, priority 2010, dated 2015)
